The values that follow come from the OligoGym collection.

This data set has as its target SNHG14. As to conditions: ASO, Human Neuronal Cell.

After the bases stand the sugars from the 5' end (letter, count) and the backbone: PS all phosphorothioate, else s phosphorothioate and o phosphodiester by linkage. Methylation of C is not given here. l = locked nucleic acid (LNA); d = 2'-deoxy (DNA)

On to “ATTGATTCAATTCCCTT (sugars l3 d10 l1 d1 l2, PS)”, for which the target mRNA inhibition (7.5 µM) is 70%.

As to “ATTGATTCAATTCCCTT (sugars ldddldddddddlldll, PS)”, the target mRNA inhibition (7.5 µM) came out at 57%.

For “ATTGATTCAATTCCCTT (sugars lddldddddddlldlll, PS)”, the target mRNA inhibition (7.5 µM) is 61%.

For “ATTGATTCAATTCCCTT (sugars lddlldddddddlldll, PS)”, the target mRNA inhibition (7.5 µM) was found to be 59%.

Regarding “ATTTAAATTTCCAAACATT (sugars l2 d13 l4, PS)”, the target mRNA inhibition is 11% (0.2 µM) and -17% (1 µM).

With “ATTTACACTTAATTATACTT (sugars ldlllldddddddldlddll, PS)”, the target mRNA inhibition (7.5 µM) stood at 45%.

Consider “ATTTACACTTAATTATACTT (sugars llddlllddddddlddllll, PS)”, for which, under “7.5 µM”, the target mRNA inhibition came out at 38%.

Take ATTTCATTAAGTCACC (sugars l2 d10 l4, PS): the target mRNA inhibition by setting is: (0.2 µM) 46%; (1 µM) 59%.

On to “ATTTTTTTCTTACTATCTTC (sugars ldlllddddddddlddddll, PS)”, for which the target mRNA inhibition (7.5 µM) came to 56%.

As to “CAAAGATCATTCTCAACA (sugars l1 d1 l2 d8 l6, PS)”, the target mRNA inhibition (7.5 µM) worked out at 58%.

Take “CAAAGATCATTCTCAACA (sugars lllldldddddddlddll, PS)”: the target mRNA inhibition (7.5 µM) turned out to be 63%.

Consider CAAATACAGATTATCC (sugars l2 d10 l4, PS), for which the target mRNA inhibition stood at 49% (0.2 µM) and 59% (1 µM).

“CAACATTATTAACCACCTT (sugars l3 d1 l1 d11 l3, PS)”: where the note is “7.5 µM”, the target mRNA inhibition is 61%.

For “CAACATTATTAACCACCTTA (sugars l1 d2 l2 d13 l2, PS)”, under “7.5 µM”, the target mRNA inhibition turned out to be 47%.

For “CAACATTATTAACCACCTTA (sugars l4 d10 l1 d2 l3, PS)”, under “7.5 µM”, the target mRNA inhibition was 55%.

Take “CAACATTATTAACCACCTTA (sugars lddddllddddddddlddll, PS)”: for the setting “7.5 µM”, the target mRNA inhibition came to 47%.

For “CACATTATATTTAAACTAT (sugars l2 d13 l4, PS)”, the target mRNA inhibition (0.2 µM) amounted to 6% and the target mRNA inhibition (1 µM) was determined as 14%.

Regarding “CACTGATTTCCTTAAAC (sugars l4 d11 l2, PS)”, the target mRNA inhibition runs as follows: (0.2 µM) 40%; (1 µM) 43%.

For CATCTGCTACATATTC (sugars l4 d10 l2, PS), the target mRNA inhibition (0.2 µM) was 49% and the target mRNA inhibition (1 µM) came out at 58%.

In the case of CATGACACTTACATAA (sugars l3 d10 l3, PS), the target mRNA inhibition (0.2 µM) amounted to 31% and the target mRNA inhibition (1 µM) stood at 45%.

In the case of CATTCAACCCTAATCA (sugars l3 d10 l3, PS), the target mRNA inhibition was determined as 26% (0.2 µM) and 38% (1 µM).

As to CATTCTATCTGCCAAA (sugars l2 d10 l4, PS), the target mRNA inhibition reads like this: (0.2 µM) 55%; (1 µM) 64%.

Regarding CCAACATAGATCCTCT (sugars l2 d10 l4, PS), the target mRNA inhibition amounted to 55% (0.2 µM) and 67% (1 µM).

In the case of CCACCTTAAGTAACAT (sugars l3 d10 l3, PS), the target mRNA inhibition (0.2 µM) amounted to 30% and the target mRNA inhibition (1 µM) was 43%.

Take CCATGCTACATAAACC (sugars l4 d10 l2, PS): the target mRNA inhibition reads like this: (0.2 µM) 36%; (1 µM) 50%.

Consider “CCATTATTTCTTAAATA (sugars l4 d11 l2, PS)”, for which the target mRNA inhibition is -8% (0.2 µM) and 8% (1 µM).

For the sequence “CCATTTATTTCCATTTATTT (sugars ldddldddddddddldldll, PS)”, the target mRNA inhibition (7.5 µM) was found to be 56%.

For the sequence CCCTCAAAGTAATTTC (sugars l4 d10 l2, PS), the target mRNA inhibition stood at 21% (0.2 µM) and 20% (1 µM).

Turning to CCTAAGCTCCATATTT (sugars l4 d10 l2, PS), the target mRNA inhibition amounted to 39% (0.2 µM) and 45% (1 µM).
